Experimental data published in PMC9137581, “Identification of a Novel Class of Anti-Melanogenic Compounds, (Z)-5-(Substituted benzylidene)-3-phenyl-2-thioxothiazolidin-4-one Derivatives, and Their Reactive Oxygen Species Scavenging Activities” (Antioxidants, 2022).
Where two headings read alike, the source gives them in different places. Values belong to the compound of their own block, whether it stands above or below them.

What was measured:
mushroom tyrosinase [1] = conditions: read-out: IC50 against mushroom tyrosinase, cited from earlier work
[2] = test system: UVB-irradiated HRM2 hairless mice; design: method as in PMID 30554432; conditions: ref [31]; cited from earlier work
mushroom tyrosinase [3] = biological target: T1, mushroom tyrosinase (Agaricus bisporus, UniProt C7FF04); test: Mushroom tyrosinase inhibition assay (L-tyrosine substrate); format: biochemical; conditions: L-tyrosine substrate; means ± SEMs of triplicate determinations
T1 construct: purchased Sigma-Aldrich
T1 sequence (C7FF04 1-392 limits assumed): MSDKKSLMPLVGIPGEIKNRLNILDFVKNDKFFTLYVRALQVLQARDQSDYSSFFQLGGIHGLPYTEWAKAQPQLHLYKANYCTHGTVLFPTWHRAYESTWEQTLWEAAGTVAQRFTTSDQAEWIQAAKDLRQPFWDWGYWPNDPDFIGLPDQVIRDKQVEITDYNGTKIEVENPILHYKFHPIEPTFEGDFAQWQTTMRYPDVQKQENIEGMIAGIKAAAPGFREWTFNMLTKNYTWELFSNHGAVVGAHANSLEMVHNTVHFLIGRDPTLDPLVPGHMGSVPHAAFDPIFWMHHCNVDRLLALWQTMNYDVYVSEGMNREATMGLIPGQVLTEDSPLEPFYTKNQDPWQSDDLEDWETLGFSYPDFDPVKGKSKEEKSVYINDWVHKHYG
Procedure: In order to examine the inhibitory effect of the (Z)-BPTT analogs on tyrosinase activity, commercially available mushroom tyrosinase (Sigma-Aldrich, St. Louis, MO, USA) was used. The mushroom tyrosinase-inhibitory activities of the analogs were determined as described previously with modification. Briefly, 20 µL (20 units) of an aqueous mushroom tyrosinase solution was added to each well of a 96-well microplate containing 170 µL of a substrate mixture consisting of 345 μM of L-tyrosine solution, 17.2 mM phosphate buffer (pH 6.5), and 10 µL of a (Z)-BPTT analog solution at different concentrations or 10 µL of a kojic acid solution (2, 10, or 50 μM). After incubating the assay mixtures for 30 min at 37 °C, the remaining tyrosinase activities were calculated from the amounts of dopachrome that were formed as determined by measuring their absorbance at 492 nm using a microplate reader (VersaMax™, Molecular Devices, Sunnyvale, CA, USA). The curves of the IC50 values that were derived from the X-axis of the inhibitor concentration versus the amount of product that was produced were determined by aligning the dose–response curve with the Y-axis. Inhibition experiments were performed in triplicate using three to six different concentrations of the (Z)-BPTT analogs or kojic acid. Log–linear curves and their equations were determined by using inhibition percentages at three to six analog concentrations. The individual IC50 values were determined by reading the concentrations on the Y-axis at 50% inhibition. The results are the means of three independent experiments.
The tyrosinase-inhibitory activities were screened against mushroom tyrosinase using L-tyrosine as a substrate, as previously described. Kojic acid, a representative tyrosinase inhibitor, was used as a positive control. […]. All 13 of the (Z)-BPTT analogs inhibited tyrosinase activity in a concentration-dependent manner. The IC50 values are shown in Table 2, along with the analog substitutions.

[4] = DPPH radical scavenging activity assay; conditions: 1 mM, 30 min in the dark
Procedure: The effects of the (Z)-BPTT analogs 1–13 on DPPH radical scavenging activities were investigated as previously described with slight modification. Briefly, 180 μL of 0.2 mM DPPH in methanol was added to 96-well plates and then 20 μL of one of the (Z)-BPTT analogs 1–13 (10 mM in DMSO) or the positive control (10 mM L-ascorbic acid in distilled water) was added and mixed. The 96-well plates were incubated in the dark for 30 min and then the well optical densities were measured at 517 nm using a VersaMax™ microplate reader (Molecular Devices, Sunnyvale, CA, USA). All of these experiments were performed independently in triplicate. The DPPH radical scavenging activities of the analogs were calculated using the following formula:Scavenging activity (%) = (Ac − As) × 100/Ac where Ac is the optical density of the non-treated control and As is the optical density of the tested material.
The DPPH (2,2-diphenyl-1-picrylhydrazyl) radical scavenging abilities of the (Z)-BPTT analogs were investigated using L-ascorbic acid (vitamin C) as a positive control. The final concentrations of the analogs and of the positive control in the test samples and in the DPPH methanol solution were 1 and 0.18 mM, respectively. The scavenging activities of the analogs were assessed by measuring their optical densities at 517 nm after standing the samples in the dark for 30 min.

[5] = ABTS free radical scavenging activity assay; conditions: 100 µM, 2 min in the dark
Procedure: ABTS free radical scavenging activity was used to evaluate the antioxidant activities of analogs 1–13, as previously described. […] This ABTS free radical solution was then diluted with absolute methanol to an absorbance of 0.70 ± 0.02 at 734 nm. Aliquots (10 µL) of the test samples (10% DMSO + 90% EtOH) were added at a final concentration of 100 µM to 90 µL of the diluted ABTS free radical solution and incubated for 2 min in the dark at room temperature. Absorbances were then measured at 734 nm using a VersaMax™ microplate reader (Molecular Devices, Sunnyvale, CA, USA). The ABTS free radical scavenging activities of the test analogs were calculated using the following formula:Scavenging activity (%) = (Ac − As) × 100/Ac where Ac is the optical density of the non-treated control and As is the optical density of the tested material.
The effects of analogs 1–13 on ABTS (2,2′-azino-bis(3-ethylbenzothiazoline-6-sulfonic acid)) free radical scavenging activity were investigated using trolox as a positive reference control. The concentrations of the analogs and trolox in the test samples were 100 µM. The free radical scavenging activities were assessed by measuring the optical densities at 734 nm after standing in the dark for 2 min. […] Analogs 7–10, with no hydroxyl groups on the β-phenyl ring, had weak ABTS and DPPH radical scavenging activities.

[6] = test system: B16F10 murine melanoma cells; design: method as in PMID 34356311; conditions: ref [32]; cited from earlier work
B16F10 cells = test: Melanin content assay in α-MSH plus IBMX-stimulated cells; format: cell-based, murine; conditions: 48 h, B16F10 cells
Procedure: Briefly, B16F10 cells were seeded at a density of 1 × 10^5 cells per well in 6-well plates and allowed to adhere to the well bases under the same conditions that were used for cell culturing. […] In order to determine the melanin contents, the B16F10 cells that were exposed to α-MSH and IBMX for 48 h were rinsed with PBS twice and incubated in 200 µL of 1 N NaOH solution containing 10% dimethyl sulfoxide (DMSO) for 1 h at 60 °C. The cell lysates were transferred to a 96-well plate and the absorbances at 405 nm were measured using a microplate reader (VersaMax™, Molecular Devices, Sunnyvale, CA, USA). These experiments were performed individually in triplicate. B16F10 cells were seeded in 6-well culture plates and pretreated with analogs 1, 3, and 6 at concentrations of 0, 5, 10, or 20 µM and with analog 2 at 0, 2.5, 5, or 10 µM for 1 h. α-Melanocyte-stimulating hormone (α-MSH; 1 µM) and 3-isobutyl-1-methylxanthine (IBMX; 200 µM) were added sequentially in order to enhance melanin production. After incubation for 48 h at 37 °C, the melanin contents were assessed by measuring the well optical densities at 405 nm using a microplate reader. Kojic acid (10 or 20 µM) was used as a positive control.

SMILES: COc1ccc(/C=C2\SC(=S)NC2=O)cc1O [5-HMT, (Z)-5-(3-hydroxy-4-methoxybenzylidene)-2-thioxothiazolidin-4-one]
IC50 (mushroom tyrosinase [1]; ref [31]): 18.1 ± 1 µM
skin effect in vivo [2]: skin-lighting effect

IC50 (mushroom tyrosinase [3]): 80 ± 3.3 µM
SMILES: COc1cc(/C=C2\SC(=S)N(c3ccccc3)C2=O)ccc1O [Analog 4, (Z)-5-(4-Hydroxy-3-methoxybenzylidene)-3-phenyl-2-thioxothiazolidin-4-one]
DPPH radical scavenging activity [4]: 78.7%
ABTS free radical scavenging activity [5]: 61.5%

IC50 (mushroom tyrosinase [3]): > 200 µM
SMILES: CCOc1cc(/C=C2\SC(=S)N(c3ccccc3)C2=O)ccc1O [Analog 5, (Z)-5-(3-Ethoxy-4-hydroxybenzylidene)-3-phenyl-2-thioxothiazolidin-4-one]
DPPH radical scavenging activity [4]: 77.5%
ABTS free radical scavenging activity [5]: 51.2%

IC50 (mushroom tyrosinase [3]): > 200 µM
SMILES: COc1ccc(/C=C2\SC(=S)N(c3ccccc3)C2=O)cc1 [Analog 7, (Z)-5-(4-Methoxybenzylidene)-3-phenyl-2-thioxothiazolidin-4-one]

IC50 (mushroom tyrosinase [3]): 94.3 ± 7.7 µM
SMILES: COc1ccc(/C=C2\SC(=S)N(c3ccccc3)C2=O)cc1OC [Analog 8, (Z)-5-(3,4-Dimethoxybenzylidene)-3-phenyl-2-thioxothiazolidin-4-one]

IC50 (mushroom tyrosinase [3]): 22.1 ± 4.23 µM
SMILES: COc1ccc(/C=C2\SC(=S)N(c3ccccc3)C2=O)c(OC)c1 [Analog 9, (Z)-5-(2,4-Dimethoxybenzylidene)-3-phenyl-2-thioxothiazolidin-4-one]

IC50 (mushroom tyrosinase [3]): > 200 µM
SMILES: COc1cc(/C=C2\SC(=S)N(c3ccccc3)C2=O)cc(OC)c1OC [Analog 10, (Z)-3-Phenyl-2-thioxo-5-(3,4,5-trimethoxybenzylidene)thiazolidin-4-one]

IC50 (mushroom tyrosinase [3]): > 200 µM
SMILES: COc1cc(/C=C2\SC(=S)N(c3ccccc3)C2=O)cc(OC)c1O [Analog 11, (Z)-5-(4-Hydroxy-3,5-dimethoxybenzylidene)-3-phenyl-2-thioxothiazolidin-4-one]
ABTS free radical scavenging activity [5]: 57.2%

IC50 (mushroom tyrosinase [3]): 65.5 ± 9.4 µM
SMILES: O=C1/C(=C/c2ccc(O)c(Br)c2)SC(=S)N1c1ccccc1 [Analog 12, (Z)-5-(3-Bromo-4-hydroxybenzylidene)-3-phenyl-2-thioxothiazolidin-4-one]
ABTS free radical scavenging activity (in words) [5]: did not influence

IC50 (mushroom tyrosinase [3]): 78.8 ± 8.63 µM
SMILES: O=C1/C(=C/c2cc(Br)c(O)c(Br)c2)SC(=S)N1c1ccccc1 [Analog 13, (Z)-5-(3,5-Dibromo-4-hydroxybenzylidene)-3-phenyl-2-thioxothiazolidin-4-one]
ABTS free radical scavenging activity (in words) [5]: slightly decreased

SMILES: O=c1/c(=C/c2ccc(O)cc2O)sc2nc3ccccc3n12 [Compound I, (Z)-2-(2,4-dihydroxybenzylidene)benzo[4,5]imidazo[2,1-b]thiazol-3(2H)-one]
IC50 (mushroom tyrosinase [1]; ref [32]): 5 ± 0.38 µM
effects in cells [6]: anti-tyrosinase and anti-melanogenic effects

SMILES: O=C1O[C@H]([C@@H](O)CO)C(O)=C1O [L-ascorbic acid, reference compound]
DPPH radical scavenging activity [4]: 96.9%

SMILES: O=c1cc(CO)occ1O [kojic acid, reference compound]
reduction of α-MSH plus IBMX-induced increase in melanin content (B16F10 cells; 10 µM): 21.8%
reduction of α-MSH plus IBMX-induced increase in melanin content (B16F10 cells; 20 µM): 22.9%

SMILES: Cc1c(C)c2c(c(C)c1O)CCC(C)(C(=O)O)O2 (stereo not drawn) [trolox, reference compound]
ABTS free radical scavenging activity [5]: 99.8%
